The record followed here is US20240277705A1, “DOSAGE REGIMENS FOR ECUBECTEDIN” (PHARMA MAR S.A., priority 2021, published 2024).

The subject of test [1] is RXF 393 (renal carcinoma). The experiment in a line: MTT cell viability assay, RXF 393. Format: cell-based. As to conditions: Homo sapiens, RXF 393, 72 h; read-out: GI50, M (geometric mean, N = 3). From the text:
Cell lines and cell culture: The following human cancer cell lines have been used in this example (the collection code and the tissue of origin are shown in brackets): • RXF 393 (NCI) (renal carcinoma) • Caki-1 (ATCC HTB-46) (kidney clear cell carcinoma)
Cell lines were obtained from the American Type Culture Collection (ATCC) or the National Cancer Institute (NCI). Cells were maintained in the appropriate culture medium, namely: • RPMI for RXF 393 • McCoy's 5A for Caki-1
All media were supplemented with 10% FBS, 2 mM L-Glutamine and 100 units/mL of penicillin-streptomycin.
Cell viability assay: To assess the antiproliferative activity of the compounds a colorimetric assay based on 3-(4,5-Dimethylthiazol-2-yl)-2,5-diphenyltetrazolium bromide (MTT) reduction was used. […] Culture medium was then removed and 100 μL of neat DMSO added to each well to dissolve the formazan product into a coloured solution whose absorbance at 540 nm was finally measured in a PolarStar Omega microplate multilabel reader (BMG Labtech, Ortenberg, Germany). […]
GI50 is finally used as reference value. […] To define a significant (ca. 70%) confidence interval for the geometric mean, its value must be multiplied and divided by the corresponding geometric standard deviation (GSD) which was also calculated. […]

For test [2], the system named is RXF 1781L (hypernephroma, poorly differentiated). Kind of test: Propidium iodide monolayer cell proliferation assay, RXF 1781L. Format: cell-based, human. As to conditions: four days of treatment. How it is done:
Working stock solution of PM14 was prepared in DMSO at a concentration of 1.042 mM and small aliquots were stored at −20° C. On each day of an experiment, a frozen aliquot of the working stock solution was thawed and stored at room temperature prior to and during treatment.
Subsequent dilutions were done with complete RPMI 1640 cell culture medium. DMSO stock solutions were first diluted 1:22 (corresponding to 4.5% v/v DMSO). Starting with this solution, serial dilutions in half-log steps with cell culture medium were done using an intermediate dilution plate. Finally, 10 μl taken from the intermediate dilution plate were transferred to 140 μl/well of the cell culture plate. […]
Cell proliferation assay: A modified propidium iodide (PI) based monolayer assay was used to assess the anti-cancer activity of the compounds (Dengler WA, Schulte J, Berger DP, Mertelsmann R, Fiebig HH, Anti-Cancer Drugs 1995, 6: 522-532). Briefly, cells were harvested from exponential phase cultures, counted and plated in 96 well flat-bottom microtiter plates at a cell density of 4,000 to 30,000 cells/well dependent on the cell line's growth rate. […] After an incubation period of 1-2 hours at room temperature, fluorescence (FU) was measured using the Enspire Multimode Plate Reader (excitation A=530 nm, emission A=620 nm) to quantify the amount of attached viable cells. […]

Test [3] concerns MEXF 462NL (melanoma). The experiment in a line: Propidium iodide monolayer cell proliferation assay, MEXF 462NL. Format: cell-based, human. As to conditions: MEXL 462NL. The protocol: Cell proliferation assay: A modified propidium iodide (PI) based monolayer assay was used to assess the anti-cancer activity of the compounds (Dengler WA, Schulte J, Berger DP, Mertelsmann R, Fiebig HH, Anti-Cancer Drugs 1995, 6: 522-532). Briefly, cells were harvested from exponential phase cultures, counted and plated in 96 well flat-bottom microtiter plates at a cell density of 4,000 to 30,000 cells/well dependent on the cell line's growth rate. After a 24 h recovery period, to allow the cells to resume exponential growth, 10 μl of culture medium (4 control wells/cell line/plate) or of culture medium with test compounds were added. PM14 was applied at ten concentrations in half-log increments in duplicates up to 3.16 pM and treatment continued for four days. […] After an incubation period of 1-2 hours at room temperature, fluorescence (FU) was measured using the Enspire Multimode Plate Reader (excitation A=530 nm, emission A=620 nm) to quantify the amount of attached viable cells.
IC50 and IC70 values were calculated by 4 parameter non-linear curve fit using Oncotest Warehouse Software. […]
IC50 values were determined as described in Example 2, but using the following human cancer cell lines: • MEXF 276L (melanoma) • MEXF 462NL (melanoma) • MEXF 1341L (melanoma)

The term GI50 denotes the concentration giving 50% growth inhibition. By IC50 is commonly meant the midpoint of a concentration-inhibition curve. Take `COc1c(C)cc2c(c1O)[C@@H]1[C@@H]3[C@@H]4SC[C@]5(N[C@H](CO)Cc6c5[nH]c5ccccc65)C(=O)OC[C@@H](c5c6c(c(C)c(OC(C)=O)c54)OCO6)N3[C@@H](O)[C@H](C2)N1C` [PM14, ECUBECTEDIN]: in test [1], the GI50 was found to be 0.621 nM. The IC50 was found to be 0.004 µM in test [2] (Homo sapiens, 96 h, read-out: IC50, μM (geometric mean)) and 0.0001 µM in test [3] (Homo sapiens, MEXF 462NL, read-out: IC50, μM (geometric mean)). For the same compound, the results for the “IC70, μM (geometric mean)” value in test [2] and in test [3] were 0.005 µM and 0.0001 µM, respectively.
